pIC50: −log10 of the molar value. Like-named read-outs stand apart in the source and are kept apart here.

In experiment [1] the test system is P-P70S6K (T389). The experiment can be described thus: Cell based AlphaLISA assay, inhibition of P-P70S6K (T389) (mTORC1 substrate phosphorylation) in MDA-MB-468 cells. The settings on record: Homo sapiens, 4 h, two to four hours at 37° C.; for IC50: AlphaLISA, read-out: pIC50 for Inhibition of mTORC1 and mTORC2 Substrate Phosphorylation, P-P70S6K-(T389) (converted). The procedure, abridged:
(§1)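 AlphaLISA SureFire Ultra detection of phosphorylated substrate in lysed cells; duplicate Alpha reads; control-normalized IC50 fitting.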
For orientation: Bead proximity is the source of the signal in Alpha formats.

Experiment [2] relates to P-Akt (S473). The experiment can be described thus: Cell based AlphaLISA assay, inhibition of P-Akt (S473) (mTORC2 substrate phosphorylation) in MDA-MB-468 cells. Conditions: Homo sapiens, MDA-MB-468, 4 h, two to four hours at 37° C.; for IC50: AlphaLISA, read-out: pIC50 for Inhibition of mTORC1 and mTORC2 Substrate Phosphorylation, p-AKT 1/2/3 -(S473) (converted). In outline: as §1

In experiment [3] the test system is P-4E-BP1 (T37/46). The experiment can be described thus: Cell based AlphaLISA assay, inhibition of P-4E-BP1 (T37/46) (mTORC1 substrate phosphorylation) in MDA-MB-468 cells. Conditions: Homo sapiens, MDA-MB-468, 4 h, two to four hours at 37° C.; for IC50: AlphaLISA, read-out: pIC50 for Inhibition of mTORC1 and mTORC2 Substrate Phosphorylation, P-4E-BP1-(T37/46) (converted). The procedure, abridged: as §1

For the compound `CO[C@H]1C[C@@H]2CC[C@@H](C)[C@@](O)(O2)C(=O)C(=O)N2CCCC[C@H]2C(=O)O[C@H]([C@H](C)C[C@@H]2CC[C@@H](OCCCCc3cn(CCOCCOCCOCCC(=O)NCCOCCOCCOCCC(=O)NCCCCn4nc(-c5ccc6oc(N)nc6c5)c5c(N)ncnc54)nn3)[C@H](OC)C2)CC(=O)[C@H](C)/C=C(\C)[C@@H](O)[C@@H](OC)C(=O)[C@H](C)C[C@H](C)/C=C/C=C/C=C/1C` [Example 198], the IC50 in experiment [1] is under 1 nM; in experiment [2], 3.16 to 31.6 nM; in experiment [3] it was under 3.16 nM.
On to `CO[C@H]1C[C@@H]2CC[C@@H](C)[C@@](O)(O2)C(=O)C(=O)N2CCCC[C@H]2C(=O)O[C@H]([C@H](C)C[C@@H]2CC[C@@H](OCCCCc3cn(CCOCCOCCOCCC(=O)NCCOCCOCCOCCC(=O)NCCCCn4nc(-c5cc6cc(O)ccc6[nH]5)c5c(N)ncnc54)nn3)[C@H](OC)C2)CC(=O)[C@H](C)/C=C(\C)[C@@H](O)[C@@H](OC)C(=O)[C@H](C)C[C@H](C)/C=C/C=C/C=C/1C` [Example 199], for which the IC50 was under 1 nM in experiment [1], 31.6 to 1000 nM in experiment [2] and under 3.16 nM in experiment [3].
`CC(C)n1nc(-c2ccc3oc(N)nc3c2)c2c(N)ncnc21` [MLN-128, reference compound]: the pIC50 was 8.85 in experiment [1] (AlphaLisa SureFire Ultra, read-out: IC50 for Inhibition of mTORC1 and mTORC2 Substrate Phosphorylation, p-P70S6K-(T389)); 8.43 in experiment [2] (AlphaLisa SureFire Ultra, read-out: IC50 for Inhibition of mTORC1 and mTORC2 Substrate Phosphorylation, p-AKT1/2/3-(S473)); 7.80 in experiment [3] (AlphaLisa SureFire Ultra, read-out: IC50 for Inhibition of mTORC1 and mTORC2 Substrate Phosphorylation, p-4E-BP1-(T37/46)).

Values taken from patent US20230093861A1, “RAPAMYCIN ANALOGS AS MTOR INHIBITORS” (Revolution Medicines, Inc., priority 2017, published 2023).
